The target of one experiment is T1, hACAT-1 (Homo sapiens, UniProt P35610).
T1 construct: made in house; host or cells: baculovirus; virus produced in sf9, protein expressed in Hi5 insect cells; microsome fraction used
T1 sequence (P35610 1-550): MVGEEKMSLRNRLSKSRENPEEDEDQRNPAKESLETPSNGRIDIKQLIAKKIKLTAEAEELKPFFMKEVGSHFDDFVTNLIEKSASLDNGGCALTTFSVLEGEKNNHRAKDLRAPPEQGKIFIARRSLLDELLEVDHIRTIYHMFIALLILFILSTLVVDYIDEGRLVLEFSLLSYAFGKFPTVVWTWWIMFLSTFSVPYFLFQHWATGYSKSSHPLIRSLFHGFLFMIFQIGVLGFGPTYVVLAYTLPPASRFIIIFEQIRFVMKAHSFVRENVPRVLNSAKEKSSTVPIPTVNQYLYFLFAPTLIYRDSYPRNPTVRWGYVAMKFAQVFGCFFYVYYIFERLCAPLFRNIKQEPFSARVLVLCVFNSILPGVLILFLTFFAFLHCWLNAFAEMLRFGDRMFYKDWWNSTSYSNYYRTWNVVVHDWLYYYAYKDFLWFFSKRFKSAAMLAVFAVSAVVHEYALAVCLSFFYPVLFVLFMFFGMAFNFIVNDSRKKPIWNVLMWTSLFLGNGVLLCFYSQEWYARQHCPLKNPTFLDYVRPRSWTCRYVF
Kind of experiment: ACAT activity, hACAT-1 microsomes, [1-14C]oleoyl-CoA. The experiment is classed as biochemical. The note with it: 100 μg/ml; read-out: Inhibitory activity (%) hACAT-1. The source says: (§1) To investigate the effect on human ACAT-1 and ACAT-2 activities, hACAT-1 and hACAT-2 proteins were obtained using baculovirus expression system.
(§2) hACAT-1 and hACAT-2 cDNAs, obtained by human liver cDNA library screening, were inserted into the baculovirus transfer vector, which was introduced into an insect cell line sf9 to produce virus. Then, recombinant virus of each hACAT-1 and hACAT-2 was separated by plaque purification, followed by amplification three times to raise titer of the viral stock. Hi5 insect cells having high protein expression efficiency were infected with the recombinant virus (1 multiplicity of infection), followed by shaking culture at 27° C. for a day. Centrifugation was performed at 500×g for 15 minutes to separate microsome fractions from Hi5 cells over-expressing hACAT-1 and hACAT-2. The resultant cells were lysed in a hypotonic buffer by quick freezing-quick thawing, followed by ultracentrifugation at 100,000×g for one hour. The obtained microsome fractions were suspended in the hypotonic buffer until the concentration of the protein reached 8 mg/ml, which was stored in a deep freezer until use.
(§3) To measure the ACAT activity, [1-^14C] oleoly-CoA (56.0 μCi/μmol; Amersham) was used as a substrate and a method of Brecher & Chan was used with a slight modification [P. Brecher and C. Chan, Biochem. Biophys. Acta, 617, 458, 1980].
(§4) Ten μl of the centipede extracts or the compound prepared in the above Example was mixed with 4.0 μl of the microsomal solution prepared in Experimental Example <2-1>, 20.0 μl of an activity analyzing buffer (0.5 M KH2PO4, 10 mM DTT, pH 7.4; Sigma), 15.0 μl of fatty acid-free bovine serum albumin (fatty acid-free BSA, stock concentration 40 mg/ml; Sigma), 2.0 μl of cholesterol (stock solution 20 mg/ml; Sigma) and 41.0 μl of distilled water, which was preincubated at 37° C. for 15 minutes. […] The radioactivity of the mixture was measured with 1450 Microbeta liquid scintillation counter (Wallacoy).
(§5) ACAT activity was calculated as pmol of cholesteryl oleate synthesized per 1 mg of protein in one minute (pmol/minute/mg of protein).

For a further experiment, the system named is LDL. Kind of experiment: LDL-antioxidant activity by TBARS (Cu2+-mediated LDL-oxidation). The experiment is classed as biochemical, human. The protocol:
Ed., Methods in Enzymology. Vol. 234, Oxygen radicals in biological systems Part D. Academic press, San Diego, 1994]. Three hundred ml of human plasma was taken, followed by centrifugation at 100,000×g for 24 hours with an ultracentrifuge. VLDL/chylomicrom layer floating in the supernatant was eliminated. […] At that time, the compounds were dissolved in dimethylsulfoxide (DMSO) and diluted at different concentrations to be ready for the experiment. DMSO alone was used as a negative control. As a positive control, probucol, a known antioxidant, was added. To each solution was added 10 μl of 0.25 mM CuSO4, followed by reaction at 37° C. for 4 hours. The reaction was terminated by addition of 1 ml of 20% trichloroacetic acid (TCA) solution. 1 ml of 0.67% TBA solution dissolved in 0.05 N NaOH solution was added thereto, followed by stirring for 10 seconds. The solution was heated at 95° C. for 5 minutes to induce color development and then cooled down with ice water. The solution was centrifuged at 3000 rpm for 5 minutes to separate the supernatant and OD540 was measured with UV/VIS spectrophotometer to measure the level of malondialdehyde (MDA) generated by the color development. In the meantime, to calculate the standard curve of malondialdehyde, the stock solution of malonaldehyde bis (dimethylacetal) was diluted, resulting in PBS standard solution containing 0˜10 nmol malondialdehyde. […] The malondialdehyde generated from the compounds of the invention was quantified and inhibitory activity and IC50 were also calculated.

For another experiment, the target named is T2, hACAT-2 (Homo sapiens, UniProt O75908).
T2 construct: made in house; host or cells: baculovirus; virus produced in sf9, protein expressed in Hi5 insect cells; microsome fraction used
T2 sequence (O75908 1-522): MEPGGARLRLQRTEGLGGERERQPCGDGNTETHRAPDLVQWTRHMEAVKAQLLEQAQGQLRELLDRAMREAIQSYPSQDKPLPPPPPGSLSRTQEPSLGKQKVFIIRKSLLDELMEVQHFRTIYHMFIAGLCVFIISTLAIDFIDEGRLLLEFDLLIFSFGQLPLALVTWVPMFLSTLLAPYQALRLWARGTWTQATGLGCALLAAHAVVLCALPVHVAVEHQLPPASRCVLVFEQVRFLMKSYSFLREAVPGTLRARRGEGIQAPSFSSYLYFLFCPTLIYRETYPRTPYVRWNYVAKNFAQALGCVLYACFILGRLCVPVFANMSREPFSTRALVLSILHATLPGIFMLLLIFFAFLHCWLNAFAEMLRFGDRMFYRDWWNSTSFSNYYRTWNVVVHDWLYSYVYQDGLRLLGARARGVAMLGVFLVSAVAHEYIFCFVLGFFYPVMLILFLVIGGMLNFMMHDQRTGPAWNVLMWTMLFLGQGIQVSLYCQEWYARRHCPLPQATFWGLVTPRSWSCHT
Kind of experiment: ACAT activity, hACAT-2 microsomes, [1-14C]oleoyl-CoA. The format is biochemical. Particulars: 100 μg/ml; read-out: Inhibitory activity (%) hACAT-2.
Description: as §1, §2, §3, §4, §5

Molecules are shown by their SMILES.

For the compound `Oc1cnc2c(O)cccc2c1` [Compound 1, 3,8-dihydroxyquinoline], the inhibition at 100 µg/mL on hACAT-1 was 60%; on hACAT-2, 50%. Also, the half-maximal inhibitory concentration (IC50) in the experiment on LDL was 2.6 µM.
As to `COc1c(O)nc2c(O)cccc2c1OC` [Compound 2, 3,4-dimethoxyquinoline-2,8-diol], the inhibition at 100 µg/mL at hACAT-1 came out at 79%; on hACAT-2 it was 58%. The compound further returned an IC50 with LDL of 63 µM.
In the same order, the values of `CC(C)(C)c1ccc(O)c(C(C)(C)C)c1` [Compound 3, 2,4-di-tert-butylphenol] are 63%, 51% and 8.2 µM.
In the case of `CC(C)(Sc1cc(C(C)(C)C)c(O)c(C(C)(C)C)c1)Sc1cc(C(C)(C)C)c(O)c(C(C)(C)C)c1` [Probucol, probucol, reference compound], the IC50 with LDL amounted to 3.1 µM.

The values above are taken from patent publication US8362034B2, “Quinoline compound, and composition containing centipede extract or compounds isolated therefrom for prevention and treatment of cardiovascular disease” (Korea Research Institute of Bioscience and Biotechnology, priority 2005, dated 2013).
